Measured values: PMC9488892 (Medicinal Chemistry Research, 2022)

How the values were obtained:
[1] = molecular target: melatonin type I (MT1) receptor (Homo sapiens, UniProt P48039); assay type: cell-based
[2] = molecular target: T1, melatonin type II (MT2) receptor (Homo sapiens, UniProt P49286); assay type: cell-based
T1 sequence (P49286 1-362): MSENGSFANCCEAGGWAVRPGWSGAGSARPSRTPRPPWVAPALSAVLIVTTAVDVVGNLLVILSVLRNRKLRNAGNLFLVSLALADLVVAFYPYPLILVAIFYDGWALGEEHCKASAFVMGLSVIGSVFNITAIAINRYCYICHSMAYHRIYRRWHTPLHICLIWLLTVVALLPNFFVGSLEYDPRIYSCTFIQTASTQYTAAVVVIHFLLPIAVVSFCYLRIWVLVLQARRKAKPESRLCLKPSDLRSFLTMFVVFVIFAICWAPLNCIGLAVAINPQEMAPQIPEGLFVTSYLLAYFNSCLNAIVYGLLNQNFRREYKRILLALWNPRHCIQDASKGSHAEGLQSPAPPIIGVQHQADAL

melatonin type I (MT1) receptor, sequence (P48039 whole entry): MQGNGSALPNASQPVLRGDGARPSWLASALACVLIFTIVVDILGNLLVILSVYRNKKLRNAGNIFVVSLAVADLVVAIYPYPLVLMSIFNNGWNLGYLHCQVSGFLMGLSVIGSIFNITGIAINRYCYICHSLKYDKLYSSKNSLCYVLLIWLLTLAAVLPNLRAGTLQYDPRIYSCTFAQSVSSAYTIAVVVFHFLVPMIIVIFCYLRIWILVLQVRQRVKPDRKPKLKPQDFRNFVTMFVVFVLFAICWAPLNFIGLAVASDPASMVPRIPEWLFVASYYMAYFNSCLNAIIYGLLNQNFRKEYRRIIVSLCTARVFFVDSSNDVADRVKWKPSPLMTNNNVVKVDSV

- EC50 [1]: 200 µM
- EC50 [2]: 240 µM
Structure (SMILES): Cc1cc2c(cc1O)[C@@H](C)[C@H]1Oc3cc(C)c(O)cc3[C@@]1(CN1CCN(C)CC1)O2 [compound 13, (5aS,10aR,11R)-3,8,11-trimethyl-5a-((4-methylpiperazin-1-yl)methyl)-5a,10a-dihydro-11H-benzofuro[3,2-b]chromene-2,7-diol]
